# Test results as given in patent publication US7763627B2, “Tie-2 modulators and methods of use” (Exelixis, Inc., priority 2003, dated 2010).
# Biological target: Tie-2 (Homo sapiens, UniProt Q02763)
# Experiment: Tie-2 tyrosine kinase inhibition (ATP consumption by luciferase/luciferin chemiluminescence or 33P-ATP incorporation into pEY substrate)
# Assay type: biochemical
# Settings: human enzyme Tie-2; inhibition given as class symbol
# Experimental: Tyrosine kinase activity is determined by 1) measurement of kinase-dependent ATP consumption by in the presence of a generic substrate such as polyglutamine, tyrosin (pEY), by luciferase/luciferin-mediated chemiluminescence or; 2) incorporation of radioactive phosphate derived from ^33P-ATP into a generic substrate which has been adsorbed onto the well surface of polystyrene microtiter plates. Phosphorylated substrate products are quantified by scintillation spectrometry.
# Inhibition is indicated as IC50 with following key: A=IC50 less than 50 nM, B=IC50 greater than 50 nM, but less than or equal to 1000 nM, C=IC50 greater than 1000 nM, but less than 10,000 nM, and D=IC50 10,000 nM or greater. The abbreviation for human enzyme, Tie-2, is defined as tyrosine kinase with immunoglobulin and EGF repeats.
# Chain of Tie-2 (Q02763 23-1124): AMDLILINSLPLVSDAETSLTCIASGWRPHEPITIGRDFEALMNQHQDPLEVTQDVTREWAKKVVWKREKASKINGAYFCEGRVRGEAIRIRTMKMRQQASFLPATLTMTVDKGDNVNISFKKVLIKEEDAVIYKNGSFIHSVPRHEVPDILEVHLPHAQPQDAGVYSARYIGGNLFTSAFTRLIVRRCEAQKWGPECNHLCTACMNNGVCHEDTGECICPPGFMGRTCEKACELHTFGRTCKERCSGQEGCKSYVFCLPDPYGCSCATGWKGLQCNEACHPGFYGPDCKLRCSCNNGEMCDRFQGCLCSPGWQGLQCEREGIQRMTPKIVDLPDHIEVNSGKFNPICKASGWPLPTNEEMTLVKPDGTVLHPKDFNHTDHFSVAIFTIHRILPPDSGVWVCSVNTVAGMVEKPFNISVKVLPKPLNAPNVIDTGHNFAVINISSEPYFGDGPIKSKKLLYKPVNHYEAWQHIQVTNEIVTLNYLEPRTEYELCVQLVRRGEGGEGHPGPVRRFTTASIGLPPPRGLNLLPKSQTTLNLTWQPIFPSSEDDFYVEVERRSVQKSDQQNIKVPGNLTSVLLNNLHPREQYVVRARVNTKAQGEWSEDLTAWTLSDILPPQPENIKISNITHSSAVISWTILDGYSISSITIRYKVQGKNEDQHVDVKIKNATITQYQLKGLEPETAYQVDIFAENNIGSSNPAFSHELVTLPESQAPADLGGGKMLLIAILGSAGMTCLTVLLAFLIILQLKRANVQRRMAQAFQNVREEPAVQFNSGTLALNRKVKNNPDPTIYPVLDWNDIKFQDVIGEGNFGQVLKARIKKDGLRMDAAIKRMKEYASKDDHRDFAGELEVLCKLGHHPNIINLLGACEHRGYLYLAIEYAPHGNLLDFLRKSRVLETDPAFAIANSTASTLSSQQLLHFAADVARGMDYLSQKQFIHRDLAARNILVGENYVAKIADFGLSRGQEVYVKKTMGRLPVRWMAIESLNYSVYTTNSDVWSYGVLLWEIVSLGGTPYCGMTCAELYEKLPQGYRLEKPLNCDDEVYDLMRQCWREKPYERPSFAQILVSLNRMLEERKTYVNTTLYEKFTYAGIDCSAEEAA
row,SMILES,IC50 [µM]
1,"c1ccc2c(NC3CCCCC3)nc(-c3ccncc3)nc2c1 [Compound 1, N-cyclohexyl-2-pyridin-4-ylquinazolin-4-amine]",1 to 10
2,"c1ccc2c(NCCN3CCCC3)nc(-c3ccncc3)nc2c1 [Compound 2, 2-pyridin-4-yl-N-(2-pyrrolidin-1-ylethyl)quinazolin-4-amine]",≥ 10
3,"c1ccc2c(NC3CCCC3)nc(-c3ccncc3)nc2c1 [Compound 3, N-cyclopentyl-2-pyridin-4-ylquinazolin-4-amine]",1 to 10
4,"c1ccc2c(NCC3CCCCC3)nc(-c3ccncc3)nc2c1 [Compound 4, N-(cyclohexylmethyl)-2-pyridin-4-ylquinazolin-4-amine]",1 to 10
5,"OCCNc1nc(-c2ccncc2)nc2ccccc12 [Compound 5, 2-[(2-pyridin-4-ylquinazolin-4-yl)amino]ethanol]",≥ 10
6,"OCCCNc1nc(-c2ccncc2)nc2ccccc12 [Compound 6, 3-[(2-pyridin-4-ylquinazolin-4-yl)amino]propan-1-ol]",≥ 10
7,"Fc1ccc(CNc2nc(-c3ccncc3)nc3ccccc23)cc1 [Compound 7, N-[(4-fluorophenyl)methyl]-2-pyridin-4-ylquinazolin-4-amine]",1 to 10
8,"CN(C)CCNc1nc(-c2ccncc2)nc2ccccc12 [Compound 8, N,N-dimethyl-N′-(2-pyridin-4-ylquinazolin-4-yl)ethane-1,2-diamine]",≥ 10
9,"c1ccc2c(c1)CCC2Nc1nc(-c2ccncc2)nc2ccccc12 (stereo not drawn) [Compound 9, N-(2,3-dihydro-1H-inden-1-yl)-2-pyridin-4-ylquinazolin-4-amine]",0.05 to 1
10,"c1ccc2c(NCCN3CCOCC3)nc(-c3ccncc3)nc2c1 [Compound 10, N-(2-morpholin-4-ylethyl)-2-pyridin-4-ylquinazolin-4-amine]",≥ 10
11,"Oc1ccc(N2CCN(c3nc(-c4ccncc4)nc4ccccc34)CC2)cc1 [Compound 11, 4-[4-(2-pyridin-4-ylquinazolin-4-yl)piperazin-1-yl]phenol]",≥ 10
12,"c1ccc2c(c1)CC[C@@H](Nc1nc(-c3ccncc3)nc3ccccc13)C2 [Compound 12, 2-pyridin-4-yl-N-[(2R)-1,2,3,4-tetrahydronaphthalen-2-yl]quinazolin-4-amine]",0.05 to 1
13,"c1ccc2c(N3CCNCC3)nc(-c3ccncc3)nc2c1 [Compound 13, 4-piperazin-1-yl-2-pyridin-4-ylquinazoline]",≥ 10
14,"CC(C)(C)OC(=O)N1CCN(c2nc(-c3ccncc3)nc3ccccc23)CC1 [Compound 14, 1,1-dimethylethyl 4-(2-pyridin-4-ylquinazolin-4-yl)piperazine-1-carboxylate]",≥ 10
15,"c1ccc2c(c1)CC[C@H](Nc1nc(-c3ccncc3)nc3ccccc13)C2 [Compound 15, 2-pyridin-4-yl-N-[(2S)-1,2,3,4-tetrahydronaphthalen-2-yl]quinazolin-4-amine]",1 to 10
16,"c1ccc2c(c1)CC[C@H]2Cc1nc(-c2ccncc2)nc2ccccc12 [Compound 16, 4-[(1S)-2,3-dihydro-1H-inden-1-ylmethyl]-2-pyridin-4-ylquinazoline]",1 to 10
17,"O[C@H]1Cc2ccccc2[C@H]1Nc1nc(-c2ccncc2)nc2ccccc12 [Compound 17, (1R,2S)-1-[(2-pyridin-4-ylquinazolin-4-yl)amino]-2,3-dihydro-1H-inden-2-ol]",≥ 10
18,"O[C@@H]1Cc2ccccc2[C@@H]1Nc1nc(-c2ccncc2)nc2ccccc12 [Compound 18, (1S,2R)-1-[(2-pyridin-4-ylquinazolin-4-yl)amino]-2,3-dihydro-1H-inden-2-ol]",< 0.05
19,"CC(C)(C)OC(=O)N1CCC(Nc2nc(-c3ccncc3)nc3ccccc23)CC1 [Compound 19, 1,1-dimethylethyl 4-[(2-pyridin-4-ylquinazolin-4-yl)amino]piperidine-1-carboxylate]",1 to 10
20,"COc1cc(OC)c(CNc2nc(-c3ccncc3)nc3ccccc23)c(OC)c1 [Compound 20, 2-pyridin-4-yl-N-{[2,4,6-tris(methyloxy)phenyl]methyl}quinazolin-4-amine]",≥ 10
21,"c1ccc2c(NC3CCNCC3)nc(-c3ccncc3)nc2c1 [Compound 21, N-piperidin-4-yl-2-pyridin-4-ylquinazolin-4-amine]",≥ 10
22,"c1ccc(CO[C@H]2CCC[C@@H]2Nc2nc(-c3ccncc3)nc3ccccc23)cc1 [Compound 22, N-{(1S,2S)-2-[(phenylmethyl)oxy]cyclopentyl}-2-pyridin-4-ylquinazolin-4-amine]",≥ 10
23,"c1ccc(Nc2ccc(Nc3nc(-c4ccncc4)nc4ccccc34)cc2)cc1 [Compound 23, N-phenyl-N′-(2-pyridin-4-ylquinazolin-4-yl)benzene-1,4-diamine]",≥ 10

row,SMILES,IC50 [µM]
1,"Oc1cc2ccccc2cc1Nc1nc(-c2ccncc2)nc2ccccc12 [Compound 24, 3-[(2-pyridin-4-ylquinazolin-4-yl)amino]naphthalen-2-ol]",1 to 10
2,"CC(C)Oc1ccc(Nc2nc(-c3ccncc3)nc3ccccc23)cc1 [Compound 25, N-{4-[(1-methylethyl)oxy]phenyl}-2-pyridin-4-ylquinazolin-4-amine]",1 to 10
3,"O[C@@H]1Cc2ccccc2[C@@H]1Nc1nc(-c2ccccc2)nc2ccccc12 [Compound 26, (1S,2R)-1-[(2-phenylquinazolin-4-yl)amino]-2,3-dihydro-1H-inden-2-ol]",≥ 10
4,"O[C@H]1Cc2ccccc2[C@H]1Nc1nc(-c2ccccc2)nc2ccccc12 [Compound 27, (1R,2S)-1-[(2-phenylquinazolin-4-yl)amino]-2,3-dihydro-1H-inden-2-ol]",≥ 10
5,"O[C@@H]1CCC[C@H]1Nc1nc(-c2ccccc2)nc2ccccc12 [Compound 28, (1R,2R)-2-[(2-phenylquinazolin-4-yl)amino]cyclopentanol]",≥ 10
6,"O[C@@H]1CCCC[C@H]1Nc1nc(-c2ccccc2)nc2ccccc12 [Compound 29, (1R,2R)-2-[(2-phenylquinazolin-4-yl)amino]cyclohexanol]",≥ 10
7,"OC[C@H]1C[C@@H](Nc2nc(-c3ccccc3)nc3ccccc23)[C@H](O)[C@@H]1O [Compound 30, (1S,2R,3R,5R)-3-(hydroxymethyl)-5-[(2-phenylquinazolin-4-yl)amino]cyclopentane-1,2-diol]",≥ 10
8,"O[C@@H]1Cc2ccccc2[C@@H]1Nc1nc(-c2ccncc2)nc2ccc(Cl)cc12 [Compound 31, (1S,2R)-1-[(6-chloro-2-pyridin-4-ylquinazolin-4-yl)amino]-2,3-dihydro-1H-inden-2-ol]",< 0.05
9,"c1ccc2c(NCCN3CCNCC3)nc(-c3ccncc3)nc2c1 [Compound 32, N-(2-piperazin-1-ylethyl)-2-pyridin-4-ylquinazolin-4-amine]",≥ 10
10,"O[C@@H]1Cc2ccccc2[C@@H]1Nc1nc(-c2cccnc2)nc2ccccc12 [Compound 33, (1S,2R)-1-[(2-pyridin-3-ylquinazolin-4-yl)amino]-2,3-dihydro-1H-inden-2-ol]",1 to 10
11,"O[C@H]1Cc2ccccc2[C@H]1Nc1nc(-c2cccnc2)nc2ccccc12 [Compound 34, (1R,2S)-1-[(2-pyridin-3-ylquinazolin-4-yl)amino]-2,3-dihydro-1H-inden-2-ol]",≥ 10
12,"O[C@@H]1CCC[C@H]1Nc1nc(-c2cccnc2)nc2ccccc12 [Compound 35, (1R,2R)-2-[(2-pyridin-3-ylquinazolin-4-yl)amino]cyclopentanol]",≥ 10
13,"O[C@@H]1CCCC[C@H]1Nc1nc(-c2cccnc2)nc2ccccc12 [Compound 36, (1R,2R)-2-[(2-pyridin-3-ylquinazolin-4-yl)amino]cyclohexanol]",≥ 10
14,"O[C@@H]1Cc2ccccc2[C@@H]1Nc1nc(-c2ccccn2)nc2ccccc12 [Compound 37, (1S,2R)-1-[(2-pyridin-2-ylquinazolin-4-yl)amino]-2,3-dihydro-1H-inden-2-ol]",≥ 10
15,"O[C@H]1Cc2ccccc2[C@H]1Nc1nc(-c2ccccn2)nc2ccccc12 [Compound 38, (1R,2S)-1-[(2-pyridin-2-ylquinazolin-4-yl)amino]-2,3-dihydro-1H-inden-2-ol]",≥ 10
16,"OC[C@@H](O)CNc1nc(-c2ccncc2)nc2ccccc12 [Compound 39, (2S)-3-[(2-pyridin-4-ylquinazolin-4-yl)amino]propane-1,2-diol]",≥ 10
17,"OC[C@@H]1Cc2ccccc2N1c1nc(-c2ccncc2)nc2ccccc12 [Compound 40, [(2S)-1-(2-pyridin-4-ylquinazolin-4-yl)-2,3-dihydro-1H-indol-2-yl]methanol]",≥ 10
18,"C[C@H](CO)Nc1nc(-c2ccncc2)nc2ccccc12 [Compound 41, (2R)-2-[(2-pyridin-4-ylquinazolin-4-yl)amino]propan-1-ol]",≥ 10
19,"C[C@H](O)CNc1nc(-c2ccncc2)nc2ccccc12 [Compound 42, (2S)-1-[(2-pyridin-4-ylquinazolin-4-yl)amino]propan-2-ol]",≥ 10
20,"CCc1cc(-c2nc(N[C@H]3c4ccccc4C[C@H]3O)c3ccccc3n2)ccn1 [Compound 43, (1S,2R)-1-{[2-(2-ethylpyridin-4-yl)quinazolin-4-yl]amino}-2,3-dihydro-1H-inden-2-ol]",≥ 10
21,"CCc1cc(-c2nc(N[C@@H]3c4ccccc4C[C@@H]3O)c3ccccc3n2)ccn1 [Compound 44, (1R,2S)-1-{[2-(2-ethylpyridin-4-yl)quinazolin-4-yl]amino}-2,3-dihydro-1H-inden-2-ol]",≥ 10
22,"O[C@@H]1Cc2ccccc2[C@@H]1Nc1nc(-c2ccncc2)nc2ccc(Br)cc12 [Compound 45, (1S,2R)-1-[(6-bromo-2-pyridin-4-ylquinazolin-4-yl)amino]-2,3-dihydro-1H-inden-2-ol]",< 0.05
